Converted amounts (≈) assume the structure as drawn. Like-named read-outs stand apart in the source and are kept apart here.
Tested on: P. aeruginosa
Assay: MIC, broth microdilution, CDC/FDA Antibiotic Resistance Isolate Bank (Example 7, Tables 10, 15)
Type: cell-based
Conditions: for MIC: Pseudomonas aeruginosa, read-out: MIC
[1] = 26 metallo-carbapenemase-producing P. aeruginosa strains, β-lactamase inhibitor µg/mL in parentheses
[2] = 96 strains of P. aeruginosa, β-lactamase inhibitor µg/mL in parentheses

NCC[C@H](O)C(=O)N[C@@H]1C[C@H](N)[C@@H](O[C@H]2O[C@H](CN)[C@@H](O)[C@H](O)[C@H]2O)[C@H](O)[C@H]1O[C@H]1O[C@H](CO)[C@@H](O)[C@H](N)[C@H]1O [Amikacin, amikacin]
MIC against 26 metallo-carbapenemase-producing strains MIC50 [1]: >64 µg(mL) | MIC against 26 metallo-carbapenemase-producing strains MIC90 [1]: >64 µg(mL) | MIC against 96 strains of P. aeruginosa MIC50 [2]: 8 µg(mL) | MIC against 96 strains of P. aeruginosa MIC90 [2]: >64 µg(mL) | MIC (P. aeruginosa KUB No. 579, AR Bank # 447): 8 µg/mL (≈ 13.7 µM) | MIC (P. aeruginosa KUB No. 5083, AR Bank # 250): > 64 µg/mL | MIC (P. aeruginosa KUB No. 5551, AR Bank # 54): 4 µg/mL (≈ 6.83 µM) | MIC (P. aeruginosa KUB No. 5561, AR Bank # 64): 1 µg/mL (≈ 1.71 µM) | MIC (P. aeruginosa KUB No. 5587, AR Bank # 90): 32 µg/mL (≈ 54.6 µM) | MIC (P. aeruginosa KUB No. 5589, AR Bank # 92): > 64 µg/mL | MIC (P. aeruginosa KUB No. 5591, AR Bank # 94): 32 µg/mL (≈ 54.6 µM) | MIC (P. aeruginosa KUB No. 5592, AR Bank # 95): 0.5 µg/mL (≈ 0.854 µM) | MIC (P. aeruginosa KUB No. 5597, AR Bank # 100): > 64 µg/mL | MIC (P. aeruginosa KUB No. 5600, AR Bank # 103): 32 µg/mL (≈ 54.6 µM) | MIC (P. aeruginosa KUB No. 5602, AR Bank # 105): 8 µg/mL (≈ 13.7 µM) | MIC (P. aeruginosa KUB No. 5605, AR Bank # 108): > 64 µg/mL | MIC (P. aeruginosa KUB No. 5607, AR Bank # 110): > 64 µg/mL | MIC (P. aeruginosa KUB No. 5608, AR Bank # 111): > 64 µg/mL | MIC (P. aeruginosa KUB No. 5662, AR Bank # 229): 16 µg/mL (≈ 27.3 µM) | MIC (P. aeruginosa KUB No. 5663, AR Bank # 230): > 64 µg/mL | MIC (P. aeruginosa KUB No. 5664, AR Bank # 231): 8 µg/mL (≈ 13.7 µM) | MIC (P. aeruginosa KUB No. 5665, AR Bank # 232): 8 µg/mL (≈ 13.7 µM) | MIC (P. aeruginosa KUB No. 5666, AR Bank # 23): 4 µg/mL (≈ 6.83 µM) | MIC (P. aeruginosa KUB No. 5667, AR Bank # 234): 8 µg/mL (≈ 13.7 µM) | MIC (P. aeruginosa KUB No. 5668, AR Bank # 235): 64 µg/mL (≈ 109 µM) | MIC (P. aeruginosa KUB No. 5669, AR Bank # 236): 8 µg/mL (≈ 13.7 µM) | MIC (P. aeruginosa KUB No. 5670, AR Bank # 237): 2 µg/mL (≈ 3.42 µM) | MIC (P. aeruginosa KUB No. 5671, AR Bank # 238): 4 µg/mL (≈ 6.83 µM) | MIC (P. aeruginosa KUB No. 5672, AR Bank # 239): > 64 µg/mL | MIC (P. aeruginosa KUB No. 5673, AR Bank # 240): 64 µg/mL (≈ 109 µM) | MIC (P. aeruginosa KUB No. 5674, AR Bank # 241): 32 µg/mL (≈ 54.6 µM) | MIC (P. aeruginosa KUB No. 5675, AR Bank # 242): 64 µg/mL (≈ 109 µM) | MIC (P. aeruginosa KUB No. 5676, AR Bank # 243): 32 µg/mL (≈ 54.6 µM) | MIC (P. aeruginosa KUB No. 5677, AR Bank # 244): 8 µg/mL (≈ 13.7 µM) | MIC (P. aeruginosa KUB No. 5678, AR Bank # 245): > 64 µg/mL | MIC (P. aeruginosa KUB No. 5679, AR Bank # 246): > 64 µg/mL | MIC (P. aeruginosa KUB No. 5680, AR Bank # 247): 4 µg/mL (≈ 6.83 µM) | MIC (P. aeruginosa KUB No. 5681, AR Bank # 248): 64 µg/mL (≈ 109 µM) | MIC (P. aeruginosa KUB No. 5682, AR Bank # 249): > 64 µg/mL | MIC (P. aeruginosa KUB No. 5684, AR Bank # 251): 8 µg/mL (≈ 13.7 µM) | MIC (P. aeruginosa KUB No. 5685, AR Bank # 252): 0.5 µg/mL (≈ 0.854 µM) | MIC (P. aeruginosa KUB No. 5687, AR Bank # 254): > 64 µg/mL | MIC (P. aeruginosa KUB No. 5688, AR Bank # 255): > 64 µg/mL | MIC (P. aeruginosa KUB No. 5689, AR Bank # 256): 2 µg/mL (≈ 3.42 µM) | MIC (P. aeruginosa KUB No. 5690, AR Bank # 257): 8 µg/mL (≈ 13.7 µM) | MIC (P. aeruginosa KUB No. 5691, AR Bank # 258): 4 µg/mL (≈ 6.83 µM) | MIC (P. aeruginosa KUB No. 5692, AR Bank # 259): 2 µg/mL (≈ 3.42 µM) | MIC (P. aeruginosa KUB No. 5693, AR Bank # 260): 64 µg/mL (≈ 109 µM) | MIC (P. aeruginosa KUB No. 5694, AR Bank # 261): 16 µg/mL (≈ 27.3 µM) | MIC (P. aeruginosa KUB No. 5695, AR Bank # 262): 4 µg/mL (≈ 6.83 µM) | MIC (P. aeruginosa KUB No. 5696, AR Bank # 263): 32 µg/mL (≈ 54.6 µM) | MIC (P. aeruginosa KUB No. 5697, AR Bank # 264): 2 µg/mL (≈ 3.42 µM) | MIC (P. aeruginosa KUB No. 5698, AR Bank # 265): 8 µg/mL (≈ 13.7 µM) | MIC (P. aeruginosa KUB No. 5699, AR Bank # 266): 8 µg/mL (≈ 13.7 µM) | MIC (P. aeruginosa KUB No. 5700, AR Bank # 267): 16 µg/mL (≈ 27.3 µM) | MIC (P. aeruginosa KUB No. 5701, AR Bank # 268): 8 µg/mL (≈ 13.7 µM) | MIC (P. aeruginosa KUB No. 5702, AR Bank # 269): 4 µg/mL (≈ 6.83 µM) | MIC (P. aeruginosa KUB No. 5703, AR Bank # 270): 16 µg/mL (≈ 27.3 µM) | MIC (P. aeruginosa KUB No. 5704, AR Bank # 271): 4 µg/mL (≈ 6.83 µM) | MIC (P. aeruginosa KUB No. 5705, AR Bank # 272): 4 µg/mL (≈ 6.83 µM) | MIC (P. aeruginosa KUB No. 5747, AR Bank # 351): 64 µg/mL (≈ 109 µM) | MIC (P. aeruginosa KUB No. 5748, AR Bank # 352): 4 µg/mL (≈ 6.83 µM) | MIC (P. aeruginosa KUB No. 5749, AR Bank # 353): 64 µg/mL (≈ 109 µM) | MIC (P. aeruginosa KUB No. 5750, AR Bank # 354): 8 µg/mL (≈ 13.7 µM) | MIC (P. aeruginosa KUB No. 5751, AR Bank # 355): 8 µg/mL (≈ 13.7 µM) | MIC (P. aeruginosa KUB No. 5752, AR Bank # 356): 2 µg/mL (≈ 3.42 µM) | MIC (P. aeruginosa KUB No. 5753, AR Bank # 357): > 64 µg/mL | MIC (P. aeruginosa KUB No. 5754, AR Bank # 358): 4 µg/mL (≈ 6.83 µM) | MIC (P. aeruginosa KUB No. 5755, AR Bank # 359): 4 µg/mL (≈ 6.83 µM) | MIC (P. aeruginosa KUB No. 5756, AR Bank # 360): 4 µg/mL (≈ 6.83 µM) | MIC (P. aeruginosa KUB No. 5785, AR Bank # 439): > 64 µg/mL | MIC (P. aeruginosa KUB No. 5786, AR Bank # 440): 8 µg/mL (≈ 13.7 µM) | MIC (P. aeruginosa KUB No. 5787, AR Bank # 441): 2 µg/mL (≈ 3.42 µM) | MIC (P. aeruginosa KUB No. 5788, AR Bank # 443): 64 µg/mL (≈ 109 µM) | MIC (P. aeruginosa KUB No. 5789, AR Bank # 444): > 64 µg/mL | MIC (P. aeruginosa KUB No. 5790, AR Bank # 445): 64 µg/mL (≈ 109 µM) | MIC (P. aeruginosa KUB No. 5793, AR Bank # 449): 8 µg/mL (≈ 13.7 µM) | MIC (P. aeruginosa KUB No. 5798, AR Bank # 455): 0.25 µg/mL (≈ 0.427 µM) | MIC (P. aeruginosa KUB No. 5799, AR Bank # 456): 8 µg/mL (≈ 13.7 µM) | MIC (P. aeruginosa KUB No. 5800, AR Bank # 457): 2 µg/mL (≈ 3.42 µM) | MIC (P. aeruginosa KUB No. 5801, AR Bank # 458): 16 µg/mL (≈ 27.3 µM) | MIC (P. aeruginosa KUB No. 5802, AR Bank # 459): 8 µg/mL (≈ 13.7 µM) | MIC (P. aeruginosa KUB No. 5804, AR Bank # 862): 4 µg/mL (≈ 6.83 µM) | MIC (P. aeruginosa KUB No. 5805, AR Bank # 863): > 64 µg/mL | MIC (P. aeruginosa KUB No. 5806, AR Bank # 864): 0.5 µg/mL (≈ 0.854 µM) | MIC (P. aeruginosa KUB No. 5813, AR Bank # 508): 0.064 µg/mL (≈ 0.109 µM) | MIC (P. aeruginosa KUB No. 5814, AR Bank # 509): > 0.064 µg/mL | MIC (P. aeruginosa KUB No. 5815, AR Bank # 510): 0.008 µg/mL (≈ 0.0137 µM) | MIC (P. aeruginosa KUB No. 5816, AR Bank # 511): 0.004 µg/mL (≈ 0.00683 µM) | MIC (P. aeruginosa KUB No. 5817, AR Bank # 512): 0.004 µg/mL (≈ 0.00683 µM) | MIC (P. aeruginosa KUB No. 5818, AR Bank # 513): 0.032 µg/mL (≈ 0.0546 µM) | MIC (P. aeruginosa KUB No. 5819, AR Bank # 514): 0.004 µg/mL (≈ 0.00683 µM) | MIC (P. aeruginosa KUB No. 5820, AR Bank # 515): 0.008 µg/mL (≈ 0.0137 µM) | MIC (P. aeruginosa KUB No. 5821, AR Bank # 516): 0.002 µg/mL (≈ 0.00342 µM) | MIC (P. aeruginosa KUB No. 5823, AR Bank # 518): 0.016 µg/mL (≈ 0.0273 µM) | MIC (P. aeruginosa KUB No. 5831, AR Bank # 526): 0.004 µg/mL (≈ 0.00683 µM) | MIC (P. aeruginosa KUB No. 5832, AR Bank # 527): 0.0005 µg/mL (≈ 0.000854 µM) | MIC (P. aeruginosa KUB No. 5833, AR Bank # 528): 0.008 µg/mL (≈ 0.0137 µM) | MIC (P. aeruginosa KUB No. 5834, AR Bank # 529): 0.004 µg/mL (≈ 0.00683 µM)

Reference: EP4635500A1, “THERAPEUTIC AGENT FOR BACTERIAL INFECTION” (Sumitomo Pharma Co., Ltd., priority 2022, dated 2024)
